Values quoted from earlier work, collected in patent US6121280A, “Azabicyclic rotomase inhibitors” (Pfizer Inc., priority 1999, dated 2000).

Test system: neuronal cell line and culture models
Details: Lyons et al. 1994, Snyder et al. 1995

In the case of `C=CC[C@@H]1/C=C(\C)C[C@H](C)C[C@H](OC)[C@H]2O[C@@](O)(C(=O)C(=O)N3CCCC[C@H]3C(=O)O[C@H](/C(C)=C/[C@@H]3CC[C@@H](O)[C@H](OC)C3)[C@H](C)[C@@H](O)CC1=O)[C@H](C)C[C@@H]2OC` [FK-506], the “neurite outgrowth in vitro” value is listed as “promoted neurite outgrowth”.
